Measured values from PubChem BioAssay AID248 (DTP/NCI, 2004).
“And” between values parts separate entries of the source, which are not always exact repeats. Identical values can stand only once. Toxic doses and inconclusive results are not listed.

System: L1210 leukemia ip in BDF1 mice, survival T/C
Experiment: NCI In Vivo Anticancer Drug Screen. Data for tumor model L1210 Leukemia (intraperitoneal) in B6D2F1 (BDF1) mice
Settings: higher = longer survival
How it was run: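 Ratio derived from survival: compound-dosed mice over vehicle-dosed mice, all bearing a transplantable tumor.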

SMILES: C[C@]12CCC(=O)C=C1CC[C@@H]1[C@@H]2[C@@H](O)C[C@@]2(C)[C@H]1CC[C@]2(O)C(=O)COC(=O)CCC(=O)O
- T/C (endpoint: mean survival time, dose: 50.0 mg/kg/injection, schedule: Q01DX001 (sc), vehicle: steriod suspending solution): 107 % of control
- T/C (endpoint: mean survival time, dose: 100.0 mg/kg/injection, schedule: Q01DX001 (sc), vehicle: steriod suspending solution): 104 % of control
- T/C (endpoint: mean survival time, dose: 100.0 mg/kg/injection, schedule: Q01DX009 (ip), vehicle: steriod suspending solution): 108 % of control
- T/C (endpoint: mean survival time, dose: 100.0 mg/kg/injection, schedule: Q04DX003 (sc), vehicle: steriod suspending solution): 100 % of control
- T/C (endpoint: mean survival time, dose: 200.0 mg/kg/injection, schedule: Q01DX001 (sc), vehicle: steriod suspending solution): 105 % of control
- T/C (endpoint: mean survival time, dose: 200.0 mg/kg/injection, schedule: Q01DX009 (ip), vehicle: steriod suspending solution): 101 % of control
- T/C (endpoint: mean survival time, dose: 200.0 mg/kg/injection, schedule: Q04DX003 (sc), vehicle: steriod suspending solution): 96 % of control
- T/C (endpoint: mean survival time, dose: 400.0 mg/kg/injection, schedule: Q01DX001 (sc), vehicle: steriod suspending solution): 94 % of control
- T/C (endpoint: mean survival time, dose: 400.0 mg/kg/injection, schedule: Q01DX009 (ip), vehicle: steriod suspending solution): 103 % of control
- T/C (endpoint: mean survival time, dose: 400.0 mg/kg/injection, schedule: Q04DX003 (sc), vehicle: steriod suspending solution): 102 % of control

SMILES: CCCCCCCCCCCCCCCCCC(=O)NCNC(=O)CCCCCCCCCCCCCCCCC
- T/C (endpoint: mean survival time, dose: 9.37 mg/kg/injection, schedule: Q01DX009 (ip), vehicle: saline with Tween-80): 92 % of control
- T/C (endpoint: mean survival time, dose: 18.75 mg/kg/injection, schedule: Q01DX009 (ip), vehicle: saline with Tween-80): 90 % of control
- T/C (endpoint: mean survival time, dose: 37.5 mg/kg/injection, schedule: Q01DX009 (ip), vehicle: saline with Tween-80): 86 % of control and 89 % of control
- T/C (endpoint: mean survival time, dose: 37.5 mg/kg/injection, schedule: Q04DX003 (ip), vehicle: saline with Tween-80): 89 % of control
- T/C (endpoint: mean survival time, dose: 75.0 mg/kg/injection, schedule: Q04DX003 (ip), vehicle: saline with Tween-80): 89 % of control
- T/C (endpoint: mean survival time, dose: 150.0 mg/kg/injection, schedule: Q04DX003 (ip), vehicle: saline with Tween-80): 87 % of control

SMILES: COc1cc2cc3c4cc(OC)c(OC)cc4cc[n+]3c(C)c2cc1OC
- T/C (endpoint: mean survival time, dose: 12.0 mg/kg/injection, schedule: Q01DX009 (ip), vehicle: saline): 100 % of control
- T/C (endpoint: mean survival time, dose: 12.5 mg/kg/injection, schedule: Q01DX009 (ip), vehicle: water): 117 % of control
- T/C (endpoint: mean survival time, dose: 16.0 mg/kg/injection, schedule: Q03HX008 (ip), vehicle: saline): 122 % of control
- T/C (endpoint: mean survival time, dose: 16.0 mg/kg/injection, schedule: Q03HX016 (ip), vehicle: saline): 122 % of control
- T/C (endpoint: mean survival time, dose: 25.0 mg/kg/injection, schedule: Q01DX009 (ip), vehicle: saline): 117 % of control
- T/C (endpoint: mean survival time, dose: 32.0 mg/kg/injection, schedule: Q03HX008 (ip), vehicle: saline): 118 % of control
- T/C (endpoint: mean survival time, dose: 32.0 mg/kg/injection, schedule: Q03HX024 (ip), vehicle: saline): 124 % of control
- T/C (endpoint: mean survival time, dose: 50.0 mg/kg/injection, schedule: Q01DX009 (ip), vehicle: saline sonified): 115 % of control
- T/C (endpoint: mean survival time, dose: 50.0 mg/kg/injection, schedule: Q04DX002 (ip), vehicle: saline): 120 % of control
- T/C (endpoint: mean survival time, dose: 50.0 mg/kg/injection, schedule: Q04DX003 (ip), vehicle: saline): 116 % of control
- T/C (endpoint: mean survival time, dose: 64.0 mg/kg/injection, schedule: Q03HX008 (ip), vehicle: saline): 122 % of control
- T/C (endpoint: mean survival time, dose: 100.0 mg/kg/injection, schedule: Q01DX009 (ip), vehicle: saline sonified): 115 % of control
- T/C (endpoint: mean survival time, dose: 100.0 mg/kg/injection, schedule: Q01DX009 (ip), vehicle: saline): 110 % of control and 119 % of control
- T/C (endpoint: mean survival time, dose: 100.0 mg/kg/injection, schedule: Q04DX002 (ip), vehicle: saline): 123 % of control
- T/C (endpoint: mean survival time, dose: 100.0 mg/kg/injection, schedule: Q04DX003 (ip), vehicle: saline): 108 % of control
- T/C (endpoint: mean survival time, dose: 128.0 mg/kg/injection, schedule: Q01DX001 (ip), vehicle: saline): 117 % of control
- T/C (endpoint: mean survival time, dose: 128.0 mg/kg/injection, schedule: Q01DX009 (ip), vehicle: saline): 120 % of control
- T/C (endpoint: mean survival time, dose: 128.0 mg/kg/injection, schedule: Q03HX008 (ip), vehicle: saline): 124 % of control
- T/C (endpoint: mean survival time, dose: 128.0 mg/kg/injection, schedule: Q04DX003 (ip), vehicle: saline): 114 % of control
- T/C (endpoint: mean survival time, dose: 128.0 mg/kg/injection, schedule: Q08DX002 (ip), vehicle: saline): 122 % of control
- T/C (endpoint: mean survival time, dose: 200.0 mg/kg/injection, schedule: Q01DX009 (ip), vehicle: saline sonified): 112 % of control
- T/C (endpoint: mean survival time, dose: 200.0 mg/kg/injection, schedule: Q04DX002 (ip), vehicle: saline): 120 % of control
- T/C (endpoint: mean survival time, dose: 256.0 mg/kg/injection, schedule: Q01DX001 (ip), vehicle: saline): 117 % of control
- T/C (endpoint: mean survival time, dose: 256.0 mg/kg/injection, schedule: Q08DX002 (ip), vehicle: saline): 118 % of control
- T/C (endpoint: mean survival time, dose: 400.0 mg/kg/injection, schedule: Q01DX009 (ip), vehicle: water): 151 % of control
- T/C (endpoint: mean survival time, dose: 400.0 mg/kg/injection, schedule: Q04DX002 (ip), vehicle: saline): 116 % of control and 118 % of control
- T/C (endpoint: mean survival time, dose: 400.0 mg/kg/injection, schedule: Q04DX003 (ip), vehicle: saline): 120 % of control
- T/C (endpoint: mean survival time, dose: 512.0 mg/kg/injection, schedule: Q01DX001 (ip), vehicle: saline): 119 % of control
- T/C (endpoint: mean survival time, dose: 512.0 mg/kg/injection, schedule: Q08DX002 (ip), vehicle: saline): 120 % of control
- T/C (endpoint: mean survival time, dose: 1024.0 mg/kg/injection, schedule: Q04DX003 (ip), vehicle: saline): 106 % of control
- T/C (endpoint: median survival time, dose: 16.0 mg/kg/injection, schedule: Q03HX008 (ip), vehicle: saline): 122 % of control
- T/C (endpoint: median survival time, dose: 16.0 mg/kg/injection, schedule: Q03HX024 (ip), vehicle: saline): 122 % of control
- T/C (endpoint: median survival time, dose: 32.0 mg/kg/injection, schedule: Q01DX009 (ip), vehicle: saline): 122 % of control
- T/C (endpoint: median survival time, dose: 50.0 mg/kg/injection, schedule: Q01DX009 (ip), vehicle: saline): 105 % of control and 109 % of control
- T/C (endpoint: median survival time, dose: 62.5 mg/kg/injection, schedule: Q01DX009 (ip), vehicle: saline): 120 % of control
- T/C (endpoint: median survival time, dose: 64.0 mg/kg/injection, schedule: Q01DX001 (ip), vehicle: saline): 122 % of control
- T/C (endpoint: median survival time, dose: 64.0 mg/kg/injection, schedule: Q01DX009 (ip), vehicle: saline): 122 % of control
- T/C (endpoint: median survival time, dose: 64.0 mg/kg/injection, schedule: Q01DX009 (oral), vehicle: saline): 100 % of control
- T/C (endpoint: median survival time, dose: 64.0 mg/kg/injection, schedule: Q01DX009 (sc), vehicle: saline): 100 % of control
- T/C (endpoint: median survival time, dose: 64.0 mg/kg/injection, schedule: Q03HX008 (ip), vehicle: saline): 122 % of control
- T/C (endpoint: median survival time, dose: 64.0 mg/kg/injection, schedule: Q04DX003 (ip), vehicle: saline): 122 % of control
- T/C (endpoint: median survival time, dose: 64.0 mg/kg/injection, schedule: Q08DX002 (ip), vehicle: saline): 111 % of control
- T/C (endpoint: median survival time, dose: 125.0 mg/kg/injection, schedule: Q01DX009 (ip), vehicle: saline): 120 % of control
- T/C (endpoint: median survival time, dose: 128.0 mg/kg/injection, schedule: Q01DX001 (ip), vehicle: saline): 122 % of control
- T/C (endpoint: median survival time, dose: 128.0 mg/kg/injection, schedule: Q01DX009 (ip), vehicle: saline): 122 % of control
- T/C (endpoint: median survival time, dose: 128.0 mg/kg/injection, schedule: Q01DX009 (oral), vehicle: saline): 105 % of control
- T/C (endpoint: median survival time, dose: 128.0 mg/kg/injection, schedule: Q01DX009 (sc), vehicle: saline): 100 % of control
- T/C (endpoint: median survival time, dose: 128.0 mg/kg/injection, schedule: Q04DX003 (ip), vehicle: saline): 122 % of control
- T/C (endpoint: median survival time, dose: 128.0 mg/kg/injection, schedule: Q08DX002 (ip), vehicle: saline): 122 % of control
- T/C (endpoint: median survival time, dose: 256.0 mg/kg/injection, schedule: Q01DX009 (oral), vehicle: saline): 111 % of control
- T/C (endpoint: median survival time, dose: 256.0 mg/kg/injection, schedule: Q01DX009 (sc), vehicle: saline): 94 % of control
- T/C (endpoint: median survival time, dose: 256.0 mg/kg/injection, schedule: Q08DX002 (ip), vehicle: saline): 122 % of control
- T/C (endpoint: median survival time, dose: 512.0 mg/kg/injection, schedule: Q01DX001 (ip), vehicle: saline): 122 % of control
- T/C (endpoint: median survival time, dose: 512.0 mg/kg/injection, schedule: Q01DX009 (oral), vehicle: saline): 100 % of control
- T/C (endpoint: median survival time, dose: 512.0 mg/kg/injection, schedule: Q01DX009 (sc), vehicle: saline): 100 % of control
- T/C (endpoint: median survival time, dose: 512.0 mg/kg/injection, schedule: Q04DX003 (ip), vehicle: saline): 122 % of control
- T/C (endpoint: median survival time, dose: 1024.0 mg/kg/injection, schedule: Q01DX009 (oral), vehicle: saline): 88 % of control
- T/C (endpoint: median survival time, dose: 1024.0 mg/kg/injection, schedule: Q01DX009 (sc), vehicle: saline): 100 % of control
- T/C (endpoint: median survival time, dose: 1024.0 mg/kg/injection, schedule: Q08DX002 (ip), vehicle: saline): 122 % of control
- T/C (endpoint: median survival time, dose: 1600.0 mg/kg/injection, schedule: Q01DX009 (ip), vehicle: saline): 90 % of control

SMILES: CC(=O)OC(C)(C)Cc1ccccc1
- T/C (endpoint: mean survival time, dose: 100.0 mg/kg/injection, schedule: Q01DX009 (ip), vehicle: saline with Tween-80): 90 % of control
- T/C (endpoint: mean survival time, dose: 200.0 mg/kg/injection, schedule: Q01DX009 (ip), vehicle: saline with Tween-80): 108 % of control

SMILES: CC1C(OC(=O)Cc2ccccc2)=CCC2C1(C)CCC1C2(C)CCC2(C)C3CC(C)(C)CCC3(C)CCC12C (stereo unspecified)
- T/C (endpoint: mean survival time, dose: 100.0 mg/kg/injection, schedule: Q01DX001 (ip), vehicle: saline): 98 % of control
- T/C (endpoint: mean survival time, dose: 200.0 mg/kg/injection, schedule: Q01DX001 (ip), vehicle: saline): 104 % of control
- T/C (endpoint: mean survival time, dose: 400.0 mg/kg/injection, schedule: Q01DX001 (ip), vehicle: saline): 104 % of control
